This passage reports IC50 results from US9458456B2, “Methods and compositions for the diagnosis, classification, and treatment of cancer” (UNIVERSITY OF SOUTH ALABAMA, priority 2011, dated 2016).

Assay type in all cases: cell-based
Common to all, as to details: Homo sapiens

Assay [1] has as its system LNCaP-Neo androgen-dependent prostate cancer cells. The experiment in a line: Docetaxel cell viability, LNCaP-Neo cells. How it is done: (§1) Castration-resistant prostate cancer cells (C4-2), Myb-knockdown castration-resistant prostate cancer cells (C4-2 shMyb), androgen-dependent prostate cancer cells (LNCap-Neo), Myb-overexpressing androgen-dependent prostate cancer cells (LNCaP-Myb), were treated with increasing concentrations of Docetaxel and the viability tested at 48 hr and 72 hr post-treatment. […] Table 2 summarizes the IC50 values for docetaxel in the various cell lines.

Assay [2] deals with C4-2 shMyb Myb-knockdown castration-resistant prostate cancer cells. The experiment in a line: Docetaxel cell viability, C4-2shMyb cells. How it is done: as §1
Assay [3] relates to C4-2 castration-resistant prostate cancer cells. The experiment in a line: Docetaxel cell viability, C4-2 cells. How it is done: as §1
The test system of assay [4] is LNCaP-Myb Myb-overexpressing androgen-dependent prostate cancer cells. Description: Docetaxel cell viability, LNCaP-Myb cells. The protocol:
as §1

For `CC(=O)O[C@@]12CO[C@@H]1C[C@H](O)[C@@]1(C)C(=O)[C@H](O)C3=C(C)[C@@H](OC(=O)[C@H](O)[C@@H](NC(=O)OC(C)(C)C)c4ccccc4)C[C@@](O)([C@@H](OC(=O)c4ccccc4)[C@H]21)C3(C)C` [Docetaxel], the IC50 (commonly the concentration that gives 50% inhibition) in assay [1] (48 hours) was found to be 7.6 µM; in assay [1] (72 hours), 4.9 µM; in assay [2] (48 hours), 7 µM; in assay [2] (72 hours), 4.8 µM; in assay [3] (C4-2, 48 hours) it was 18.2 µM; in assay [3] (C4-2, 72 hours) it was 13.1 µM. Moreover, the IC50 in assay [4] (48 hours) stood at 20.6 µM; in assay [4] (72 hours), 14.8 µM.
